In PMC12396409, “Screening and hit evaluation of a microbial metabolite library against the pathogenic Plasmodium falciparum and Toxoplasma gondii parasites” (International Journal for Parasitology: Drugs and Drug …, 2025):

Assays:
[1] = system: T. gondii RH strain (RH-Tub-eYFP) tachyzoites; experiment: microbe, parasite or virus in culture; format: cell-based, Toxoplasma gondii; conditions: 72 h; for Tg_72h_%Growth_Rep1: replicate 1; for Tg_72h_%Growth_Rep2: replicate 2
[2] = system: P. falciparum 3D7 parasites; experiment: P. falciparum growth inhibition assay, 2-cycle (120 h treatment), delayed-death screen and dose-response; format: cell-based, Plasmodium falciparum; conditions: for Pf_120h_%Growth_Rep1: replicate 1; for Pf_120h_%Growth_Rep2: replicate 2
[3] = system: P. falciparum 3D7 parasites; experiment: P. falciparum growth inhibition assay, 1-cycle (72 h treatment), SYBR DNA staining (library screen at 2 μg/mL and dose-response); format: cell-based, Plasmodium falciparum; conditions: for Pf_72h_%Growth_Rep1: replicate 1; for Pf_72h_%Growth_Rep2: replicate 2
[4] = library screen at 2 μg/mL, % growth
[5] = library screen at 2 μg/mL, 120 h, % growth
[6] = library screen at 2 μg/mL, 72 h, % growth
[7] = T. gondii, parasite screen at 2 μg/mL, % growth
[8] = P. falciparum 3D7, 120 h, parasite screen at 2 μg/mL, % growth
[9] = P. falciparum 3D7, 72 h, parasite screen at 2 μg/mL, % growth
[10] = P. falciparum, 120 h, screen at 2 μg/mL
[11] = P. falciparum, 72 h, screen at 2 μg/mL

Molecule | Tg_72h_%Growth_Rep1 [1, 4] | Tg_72h_%Growth_Rep2 [1, 4] | Pf_120h_%Growth_Rep1 [2, 5] | Pf_120h_%Growth_Rep2 [2, 5] | Pf_72h_%Growth_Rep1 [3, 6] | Pf_72h_%Growth_Rep2 [3, 6] | also measured
CC[C@H](C)[C@H]1O[C@]2(C=C[C@@H]1C)C[C@@H]1C[C@@H](C/C=C(\C)[C@@H](O[C@H]3C[C@H](OC)[C@@H](O)[C@H](C)O3)[C@@H](C)/C=C/C=C3\CO[C@@H]4[C@H](O)C(C)=C[C@@H](C(=O)O1)[C@]34O)O2 [Avermectin B1a monosaccharide] | 153.46% | 93.98% | 24.77% | 20.49% | 47.44% | 32.72% | 
CCC1OC2(CCC1C)CC1CC(CC=C(C)CC(C)C=CC=C3COC4C(=NO)C(C)=CC(C(=O)O1)C34O)O2 (stereo not drawn) [BIA-M1532] |  |  |  |  |  |  | Tg_72h_%Growth_Rep1 [1, 7]: 83.72%; Tg_72h_%Growth_Rep2 [1, 7]: 81.98%; Pf_120h_%Growth_Rep1 [2, 8]: 8.04%; Pf_120h_%Growth_Rep2 [2, 8]: 16.57%; Pf_72h_%Growth_Rep1 [3, 9]: 26.87%; Pf_72h_%Growth_Rep2 [3, 9]: 18.08%
COc1oc([C@H]2C/C(=C/C(C)=C/c3ccc([N+](=O)[O-])cc3)CO2)c(C)c(=O)c1C [Aureothin] | 66.52% | 65.05% | 128.40% | 61.20% | 103.52% | 87.70% | 
Enniatin A1 | -0.69% | 13.13% | 8.66% | 18.71% | 5.31% | 1.97% | 
CC(=O)O[C@H]1CCC2(C)C3=C(CCC2C1(C)C)[C@@]1(C)CC[C@@H](C(C)CCC=C(C)C)[C@]1(C)CC3 (stereo partly drawn) [Euphol acetate] | 114.80% | 105.35% | 60.77% | 92.36% | 66.07% | 91.20% | 
C[C@H]1NC(=O)[C@@H]2CCCN2C1=O [Cyclo(D-Ala-L-Pro)] |  |  |  |  |  |  | Tg_72h_%Growth_Rep1 ([1]; T. gondii, screen at 2 μg/mL): 121.18%; Tg_72h_%Growth_Rep2 ([1]; T. gondii, screen at 2 μg/mL): 102.00%; Pf_120h_%Growth_Rep1 [2, 10]: 102.13%; Pf_120h_%Growth_Rep2 [2, 10]: 92.71%; Pf_72h_%Growth_Rep1 [3, 11]: 84.19%; Pf_72h_%Growth_Rep2 [3, 11]: 89.96%
O=C(N[C@H](CO)[C@H](O)c1ccc([N+](=O)[O-])cc1)C(Br)Br [Bromamphenicol] |  |  |  |  |  |  | Tg_72h_%Growth_Rep1 ([1]; T. gondii, screen at 2 μg/mL): 80.35%; Tg_72h_%Growth_Rep2 ([1]; T. gondii, screen at 2 μg/mL): 93.07%; Pf_120h_%Growth_Rep1 [2, 10]: 132.78%; Pf_120h_%Growth_Rep2 [2, 10]: 78.55%; Pf_72h_%Growth_Rep1 [3, 11]: 93.46%; Pf_72h_%Growth_Rep2 [3, 11]: 85.21%
CC(C)CCCCCC=CCC(=O)N[C@@H](CC(=O)O)C(=O)N[C@@H]1C(=O)N2CCCC[C@@H]2C(=O)N[C@@H](C(C)C(=O)O)C(=O)N[C@@H](CC(=O)O)C(=O)NCC(=O)N[C@@H](CC(=O)O)C(=O)NCC(=O)N[C@H](C(C)N)C(=O)N[C@@H](C(C)C)C(=O)N2CCC[C@H]2C(=O)NC1C (stereo partly drawn) [Aspartocin D] | 85.89% | 91.61% | 152.69% | 104.90% | 103.30% | 89.43% | 
CCOC(=O)c1c(C)cc(O)cc1O [Ethyl orsellinate] | 128.38% | 103.54% | 96.78% | 106.42% | 90.89% | 117.50% | 
